# From PubChem BioAssay (NCI)
#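 Values below derive from 48-hour exposures of cells grown in 96-well plates, with endpoints linearly interpolated between the two concentrations bracketing the appropriate inhibition level. The concentration for 50% growth inhibition is given as GI50. TGI: total growth inhibition.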
# Columns and labels:
# Test in all cases: NCI-60 cell line screen, 48 h
# COLO 205 colon = system: COLO 205 colon
# HCC-2998 colon = system: HCC-2998 colon
# HCT-15 colon = system: HCT-15 colon
# HL-60(TB) leukemia = system: HL-60(TB) leukemia
# MCF7 breast = system: MCF7 breast
# NCI-H226 lung = system: NCI-H226 lung
# SK-MEL-28 melanoma = system: SK-MEL-28 melanoma
# SR leukemia = system: SR leukemia
# U251 CNS = system: U251 CNS
# OVCAR-4 ovarian = system: OVCAR-4 ovarian
Structure (SMILES),GI50 (COLO 205 colon) [µM],TGI (COLO 205 colon) [µM],GI50 (HCC-2998 colon) [µM],TGI (HCC-2998 colon) [µM],GI50 (HCT-15 colon) [µM],TGI (HCT-15 colon) [µM],GI50 (HL-60(TB) leukemia) [µM],TGI (HL-60(TB) leukemia) [µM],GI50 (MCF7 breast) [µM],TGI (MCF7 breast) [µM],GI50 (NCI-H226 lung) [µM],TGI (NCI-H226 lung) [µM],GI50 (SK-MEL-28 melanoma) [µM],TGI (SK-MEL-28 melanoma) [µM],GI50 (SR leukemia) [µM],TGI (SR leukemia) [µM],GI50 (U251 CNS) [µM],TGI (U251 CNS) [µM],GI50 (OVCAR-4 ovarian) [µM],TGI (OVCAR-4 ovarian) [µM]
CNc1ccc(N=Nc2cccc3ncccc23)cc1,2.48,> 100,33.5,> 100,16.1,> 100,4.88,> 100,0.0261,> 100,> 100,> 100,> 100,> 100,16.1,> 88.7,31.5,> 100,–,–
COc1cccc(C2CC(=O)Nc3cc4c(cc32)CCC4)c1OC (stereo not drawn),3.13,8.48,7.56,28.1,3.63,25.8,2.73,7.88,3.22,18.4,9.7,44.2,5.33,28.3,2.87,10.8,4.71,19.3,12.3,98.2
CCOc1cccc(/C=N/NC(=O)Cc2ccc(Nc3ccnc(C(F)(F)F)c3)cc2)c1O,3.9,> 100,6.78,93.4,0.909,> 100,1.03,4.22,2.39,> 100,3.21,34.9,2.97,> 100,0.316,10.8,1.58,> 100,0.824,> 100
COc1ccc2c(c1)c(-c1cc(-c3cn(C)c4ccc(OC)cc34)[nH]n1)cn2C,> 100,> 100,> 100,> 100,> 100,> 100,> 100,> 100,> 100,> 100,> 100,> 100,> 100,> 100,> 100,> 100,> 100,> 100,> 100,> 100
Cc1nc2cc(Nc3nc(Nc4ccc(F)cc4)nc(-c4ccc(Cl)cc4)n3)ccc2n1Cc1ccccc1,3.17,59.8,6.36,> 100,3.77,> 100,3.28,> 100,3.1,> 100,11.4,37.2,8.63,> 100,2.88,9.55,12.5,> 100,2.86,17.6
CC(=O)c1c(Nc2ccc(F)c(F)c2F)[nH]c2c(F)cc(F)cc2c1=O,–,–,0.378,13.6,0.331,1.73,0.372,–,0.283,13.5,0.297,1.87,0.356,3.57,0.45,> 45.9,0.343,20.1,0.32,> 100
Nc1ccc2c(SCC(=O)Nc3ccccc3-c3ccccc3NC(=O)CSc3c4ccccc4nc4cc(N)ccc34)c3ccccc3nc2c1,–,43,–,61.7,–,> 93.8,–,36.6,–,> 100,–,72.6,–,52.5,–,> 100,–,66.5,–,78.9
CCCCCCCCCCCCCCCCCCNC(=O)[C@H]1CSC(c2ccc(F)c(OC)c2)N1 (stereo partly drawn),–,–,1.05,1.94,–,–,0.67,1.62,0.141,0.541,0.773,1.58,0.647,1.33,0.637,1.91,0.866,1.6,1.38,3.62
COc1cc(/C=C2/C(=O)N(C(=O)c3ccccc3O)N=C2C)ccc1O,–,> 80.7,–,> 100,–,> 100,–,> 52.9,–,> 100,–,31.2,–,> 100,–,> 100,–,> 100,–,> 100
CCOC(=O)/N=c1\ssc(Cl)c1Cl,19,44.8,2.83,5.39,–,–,6.41,> 100,3.54,16.8,27.8,> 100,3.9,27.1,0.414,> 100,3.34,13.8,35.5,> 100
CC(=O)OC1Oc2cc(C)c(C)cc2-c2oc(=O)c(-c3ccccc3)cc21 (stereo not drawn),0.385,3.64,0.971,> 30.8,0.323,> 100,0.111,0.467,0.28,27.5,2.77,–,0.464,55.6,0.215,> 100,0.44,58.8,3.92,> 100
CC(C)c1ccc2c(c1)c(SC(C)(C)C)c(CC(C)(C)C(=O)O)n2Cc1ccc(Cl)cc1,8.46,21.9,7.71,20.4,8.8,23.4,8.5,30.3,5.14,19.4,12.6,30.8,11.3,25.1,10.6,36.7,6.8,19.4,16.9,49
COc1ccc(-c2conc2-c2ccccc2)cc1,0.248,1.42,0.534,14.7,0.099,> 100,0.288,1.41,0.0865,> 100,2.42,> 25.6,10.8,> 100,0.155,> 100,0.468,> 100,2.35,> 100
